Measurements reported in patent US20160067272A1, “METHODS FOR TREATING IMMUNE DISEASES” (priority 2013, published 2016).

Tests used:
CD4+CD25+ nTregs = test: IL-17A secretion by nTregs cultured with NAD+ and purinergic receptor antagonists; conditions: for reduction of IL-17A cytokine production induced by NAD+: both selective antagonists (5-BDBD and A804598) added; for production of IL-17A cytokine induced by NAD+: nTregs cultured with NAD+ and the selective antagonist (5-BDBD: P2RX4; A804598: P2RX7; MRS 2279: P2RY1), ELISA
Tph-1 = biological target: T1, Tph-1 (Mus musculus, UniProt P17532); test: EAE mouse model with Tph-1 inhibition (NAD+ plus p-Chlorophenylalanine); format: in vivo
T1 construct: from tissue; host or cells: whole animal: C57BL/6 mice (Charles River Laboratories)
T1 sequence (P17532 1-447): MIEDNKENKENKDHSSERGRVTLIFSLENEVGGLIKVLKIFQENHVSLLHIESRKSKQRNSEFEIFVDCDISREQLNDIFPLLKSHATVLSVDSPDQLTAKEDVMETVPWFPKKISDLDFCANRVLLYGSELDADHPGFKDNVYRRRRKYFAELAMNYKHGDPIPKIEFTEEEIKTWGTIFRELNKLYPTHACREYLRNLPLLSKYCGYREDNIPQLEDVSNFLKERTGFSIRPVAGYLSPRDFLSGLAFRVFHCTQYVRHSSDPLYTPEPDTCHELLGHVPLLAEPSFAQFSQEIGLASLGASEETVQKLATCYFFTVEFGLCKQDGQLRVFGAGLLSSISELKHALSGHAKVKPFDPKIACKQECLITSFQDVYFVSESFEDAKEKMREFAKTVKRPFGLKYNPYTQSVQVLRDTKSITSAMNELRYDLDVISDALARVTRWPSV
Experimental: Tph-1 has been very recently shown to prevent from allograft rejection and EAE^45. Thus, it was tested, in vivo, whether NAD^+ protects from EAE and regulates CD4^+ T cell differentiation through Tph1. Mice were subjected to EAE and were treated daily with a placebo solution (PBS) or NAD^+ in addition to p-Chlorophenylalanine, a specific inhibitor of Tph-1.
Onsets of clinical signs of EAE in mice injected with MOG peptide and a placebo solution appeared after 11 days (FIG. 6A). […] However, when NAD^+ treated mice received simultaneously a treatment with a Tph-1 inhibitor, onset of clinical signs of EAE appeared after 11 days.
EAE was induced in 10-week-old C57BL/6 mice using Hooke Labs EAE induction kit (EK-2110) according to manufacturer's instructions. […] For NAD^+ treatment mice received a daily intraperitoneal injection (60 mg in 100 μl in PBS) or a placebo solution (100 μl of PBS) at the same day than MOG immunization. Mice were sacrificed at day 18 and single cell suspension was obtained from spleens for flow cytometry analysis. To test whether NAD^+ was able to reverse the development of EAE, another group of mice was treated daily (for a period of 10 days) with NAD^+ (60 mg/mouse) or a placebo solution 15 days after MOG immunization when mice were scored 3 with a bilateral hindlimb paresis. EAE disease progression was monitored. For Tph-1 or CA3 inhibition, mice received daily intraperitoneal injections (simultaneous to NAD^−) of p-Chlorophenylalanine (1 ml of a 10 mM solution stock, catalog number 0938, Tocris Bioscience) or N-[[[(1S)-1-Carboxy-3-methylbutyl]amino]carbonyl]-L-glutamic acid (100 μl of a 100 mM solution stock, ZJ 43 catalog number 2675,Tocris Bioscience), respectively.

[1] = NAD+ plus Tph-1 inhibition, flow cytometry
[2] = NAD+ treatment followed by Tph-1 inhibition, spleen, flow cytometry

**Q.** What does the source list for `O=C1CN=C(c2cccc(Br)c2)c2oc3ccccc3c2N1` [5-BDBD]?
**A.** reduction of IL-17A cytokine production induced by NAD+ (CD4+CD25+ nTregs): complete; production of IL-17A cytokine induced by NAD+ (CD4+CD25+ nTregs): dramatic reduced production

**Q.** With `C[C@H](NC(=NC#N)Nc1cccc2ncccc12)c1ccccc1` [A804598, 2-cyano-1-[(1S)-1-phenylethyl]-3-quinolin-5-ylguanidine] as the compound, how does the “reduction of IL-17A cytokine production induced by NAD+” value (CD4+CD25+ nTregs) read?
**A.** Its value is “complete”.

**Q.** And the “production of IL-17A cytokine induced by NAD+” value (CD4+CD25+ nTregs)?
**A.** The value was “dramatic reduced production”.

**Q.** How did the “production of IL-17A cytokine induced by NAD+” value (CD4+CD25+ nTregs) turn out when `CNc1nc(Cl)nc2c1ncn2[C@H]1C[C@H](OP(=O)(O)O)[C@]2(COP(=O)(O)O)C[C@H]12` [MRS 2279, 2-Chloro N(6)-methyl-(N)-methanocarba-2′-deoxyadenosine-3′,5′-bisphosphate] was run?
**A.** The value was “did not change”.

**Q.** Which results are given for `N[C@@H](Cc1ccc(Cl)cc1)C(=O)O` (racemic) [p-Chlorophenylalanine]?
**A.** clinical observation (Tph-1; EAE mice treated with NAD+ and Tph-1 inhibitor): hindlimb paralysis and became rapidly lethargic; clinical signs of EAE vs MOG + placebo group (Tph-1; NAD+ and p-Chlorophenylalanine, 13 days after MOG immunization): more severe clinical signs of EAE; CD4+CD25+Foxp3+ cell frequencies (Tph-1; [1]): dramatic decrease; IL-17A+IL-23R+ cells (Tph-1; [1]): significant increase; onset of clinical signs of EAE (Tph-1; NAD+ treated mice receiving Tph-1 inhibitor simultaneously, after MOG immunization): 11 days; IL-10/IFNγ producing cells (Tph-1; [2]): reduced systemically; IL-17A producing cells (Tph-1; [2]): reduced systemically
